Results as given in patent publication US12043600B2, “Microbiocidal compounds” (SYNGENTA CROP PROTECTION AG, priority 2018, dated 2024).

Tests used:
[1] = test system: Mycosphaerella graminicola (Septoria tritici); assay: Mycosphaerella graminicola (Septoria tritici)/Liquid Culture (Septoria Blotch); assay type: cell-based; conditions: Zymoseptoria tritici; 20 ppm; liquid culture; compared to untreated control
Method in brief: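 Results given as % disease control: test compound in DMSO was placed in wells first, then potato dextrose broth carrying cryostored fungal conidia was added.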

[2] = test system: Botryotinia fuckeliana (Botrytis cinerea); assay: Botryotinia fuckeliana (Botrytis cinerea)/Liquid Culture (Gray Mould); assay type: cell-based; conditions: liquid culture, compared to untreated control
Description: Conidia of the fungus from cryogenic storage are directly mixed into nutrient broth (Vogels broth). After placing a (DMSO) solution of test compound into a microtiter plate (96-well format), the nutrient broth containing the fungal spores is added.

[3] = test system: Phaeosphaeria nodorum (Septoria nodorum); assay: Phaeosphaeria nodorum (Septoria nodorum)/Wheat/Leaf Disc Preventative (Glume Blotch); assay type: in vivo; conditions: Parastagonospora nodorum, foliar, wheat leaf disc preventative, compared to untreated control
Method in brief: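 Preventative test: compound spray first, then spore inoculation after 2 days on cv. Kanzler wheat leaf segments. Incubation in a climate cabinet at 20 °C and 75% rh under a 12 h light/12 h dark cycle. Activity rated as % control relative to untreated discs at 5–7 days post-application.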

[4] = test system: Glomerella lagenarium (Colletotrichum lagenarium); assay: Glomerella lagenarium (Colletotrichum lagenarium)/Liquid Culture (Anthracnose); assay type: cell-based; conditions: Colletotrichum orbiculare, liquid culture, compared to untreated control
Plasmopara viticola = assay: whole plant or invertebrate; assay type: in vivo; conditions: foliar, read-out: control of Plasmopara viticola
[5] = test system: Magnaporthe grisea (Pyricularia oryzae); assay: whole plant or invertebrate; assay type: in vivo; conditions: foliar, read-out: control of Magnaporthe grisea
[6] = test system: Mycosphaerella arachidis (Cercospora arachidicola); assay: Mycosphaerella arachidis (Cercospora arachidicola)/Liquid Culture (Early Leaf Spot); assay type: cell-based; conditions: liquid culture, compared to untreated control
Method in brief: (§1)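 Growth inhibition read in liquid culture: spores from frozen stocks, suspended in potato dextrose broth, meet DMSO-dissolved compound placed beforehand in the plate.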

[7] = test system: Thanatephorus cucumeris (Rhizoctonia solani); assay: Thanatephorus cucumeris (Rhizoctonia solani)/Liquid Culture (Foot Rot, Damping-Off); assay type: cell-based; conditions: liquid culture, compared to untreated control
Description: Mycelia fragments of a newly grown liquid culture of the fungus are directly mixed into nutrient broth (PDB potato dextrose broth). After placing a (DMSO) solution of the test compounds into a microtiter plate (96-well format), the nutrient broth containing the fungal material is added.

[8] = test system: Puccinia recondita f. sp. tritici; assay: Puccinia recondita f. sp. tritici/Wheat/Leaf Disc Curative (Brown Rust); assay type: in vivo; conditions: foliar, wheat leaf disc curative, compared to untreated control
Method in brief: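 Formulated compound, diluted in water, is applied to inoculated wheat cv. Kanzler leaf segments on agar one day post-inoculation (pre-incubation dark, 19° C, 75% rh). After 6-8 days at 19° C, 75% rh and 12 h/12 h light, activity is rated as percent disease control relative to untreated segments.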

[9] = test system: Puccinia recondita f. sp. tritici; assay: Puccinia recondita f. sp. tritici/Wheat/Leaf Disc Preventative (Brown Rust); assay type: in vivo; conditions: foliar, 200 ppm, wheat leaf disc preventative, compared to untreated control, read-out: control of Puccinia recondita f. sp. tritici
Phytophthora infestans = assay: whole plant or invertebrate; assay type: in vivo; conditions: in Solanum lycopersicum, foliar, read-out: control of Phytophthora infestans
[10] = test system: Monographella nivalis (Microdochium nivale); assay: Monographella nivalis (Microdochium nivale)/Liquid Culture (Foot Rot Cereals); assay type: cell-based; conditions: liquid culture, compared to untreated control
Method in brief: as §1

Pyrenophora teres = assay: Pyrenophora teres/Barley/Leaf Disc Preventative (Net Blotch); assay type: in vivo; conditions: foliar, 200 ppm, barley leaf disc preventative, compared to untreated control, read-out: control of Pyrenophora teres
Method in brief: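 Preventative leaf-disc test: inoculation with fungal spores took place 2 days after spraying segments of barley cv. Hasso, placed on agar, with water-diluted formulated compound. Read-out is % disease control per compound.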

[11] = test system: Blumeria graminis f. sp. tritici (Erysiphe graminis f. sp. tritici); assay: Blumeria graminis f. sp. tritici/Wheat/Leaf Disc Preventative (Powdery Mildew on Wheat); assay type: in vivo; conditions: foliar, wheat leaf disc preventative, compared to untreated control
Method in brief: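 Preventative leaf-disc test: percent disease control versus untreated leaf segments read 6-8 days post-application. Compound spray applied to wheat cv. Kanzler segments on agar one day before shaking infected plants over them; incubation at 20° C and 60% rh, 24 h darkness then 12 h light/12 h dark cycles.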

Alternaria solani = assay: Alternaria solani/Tomato/Leaf Disc (Early Blight); assay type: in vivo; conditions: foliar, tomato leaf disc, compared to untreated control
Method in brief: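 Protective leaf-disc test: compound sprayed onto tomato cv. Baby disks, spore inoculation following after 2 days. Disks kept at 80% rh, 12/12 h light/dark, 23° C. day and 21° C. night; activity read as percent disease control relative to untreated checks 5-7 days post-application.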

Phakopsora pachyrhizi = assay: Phakopsora pachyrhizi/Soybean/Preventative (Soybean Rust); assay type: in vivo; conditions: foliar, 288 h, 200 ppm, soybean leaf disc preventative, compared to untreated control, read-out: control of Phakopsora pachyrhizi

CO/C=C(\Oc1cc(-n2ccc(C(C)C)n2)c(OC)cc1C)C(=O)OC [Compound E-31, methyl (Z)-2-[5-(3-isopropylpyrazol-1-yl)-4-methoxy-2-methyl-phenoxy]-3-methoxy-prop-2-enoate]
≥ 80%: inhibition of growth at 20 ppm [1] | inhibition of growth at 20 ppm [2] | pest or weed control at 200 ppm [3] | inhibition of growth at 20 ppm [4] | pest or weed control at 200 ppm (Plasmopara viticola) | pest or weed control at 200 ppm [5] | inhibition of growth at 20 ppm [6] | inhibition of growth at 20 ppm [7] | pest or weed control at 200 ppm [8] | pest or weed control at 200 ppm [9] | pest or weed control at 200 ppm (Phytophthora infestans) | inhibition of growth at 20 ppm [10]

C=Cc1ccn(-c2ccc(C)c(O/C(=C\OC)C(=O)OC)c2)n1 [Compound E-45, methyl (Z)-3-methoxy-2-[2-methyl-5-(3-vinylpyrazol-1-yl)phenoxy]prop-2-enoate]
≥ 80%: inhibition of growth at 20 ppm [1] | pest or weed control at 200 ppm (Pyrenophora teres) | pest or weed control at 200 ppm [3] | inhibition of growth at 20 ppm [4] | pest or weed control at 200 ppm (Plasmopara viticola) | pest or weed control at 200 ppm [5] | inhibition of growth at 20 ppm [6] | inhibition of growth at 20 ppm [7] | pest or weed control at 200 ppm [8] | pest or weed control at 200 ppm [9] | pest or weed control at 200 ppm (Phytophthora infestans) | inhibition of growth at 20 ppm [10] | pest or weed control at 200 ppm [11]
114 to 117 °C: melting point

CO/C=C(\Oc1cc(-n2ccc(C(F)(F)F)n2)ccc1Cl)C(=O)OC [Compound E-98, methyl (Z)-2-[2-chloro-5-[3-(trifluoromethyl)pyrazol-1-yl]phenoxy]-3-methoxy-prop-2-enoate]
≥ 80%: inhibition of growth at 20 ppm [1] | pest or weed control at 200 ppm (Alternaria solani) | inhibition of growth at 20 ppm [2] | inhibition of growth at 20 ppm [4] | pest or weed control at 200 ppm (Plasmopara viticola) | pest or weed control at 200 ppm [5] | inhibition of growth at 20 ppm [6] | inhibition of growth at 20 ppm [7] | pest or weed control at 200 ppm [9] | pest or weed control at 200 ppm (Phytophthora infestans) | inhibition of growth at 20 ppm [10] | pest or weed control at 200 ppm [11]
≥ 50%: pest or weed control at 200 ppm (Phakopsora pachyrhizi)

CO/C=C(\Oc1cc(-n2cc(F)c(C(C)C)n2)ccc1C)C(=O)OC [Compound E-46, methyl (Z)-2-[5-(4-fluoro-3-isopropyl-pyrazol-1-yl)-2-methyl-phenoxy]-3-methoxy-prop-2-enoate]
≥ 80%: inhibition of growth at 20 ppm [1] | inhibition of growth at 20 ppm [2] | inhibition of growth at 20 ppm [4] | pest or weed control at 200 ppm (Plasmopara viticola) | pest or weed control at 200 ppm [5] | inhibition of growth at 20 ppm [6] | inhibition of growth at 20 ppm [7] | pest or weed control at 200 ppm [8] | pest or weed control at 200 ppm [9] | pest or weed control at 200 ppm (Phytophthora infestans) | inhibition of growth at 20 ppm [10]
111 to 113 °C: melting point

C/C=C/c1ccn(-c2ccc(C)c(O/C(=C\OC)C(=O)OC)c2)n1 [Compound E-38, methyl (Z)-3-methoxy-2-[2-methyl-5-[3-[(E)-prop-1-enyl]pyrazol-1-yl]phenoxy]prop-2-enoate]
≥ 80%: inhibition of growth at 20 ppm [1] | pest or weed control at 200 ppm (Pyrenophora teres) | inhibition of growth at 20 ppm [2] | inhibition of growth at 20 ppm [4] | pest or weed control at 200 ppm (Plasmopara viticola) | pest or weed control at 200 ppm [5] | inhibition of growth at 20 ppm [6] | inhibition of growth at 20 ppm [7] | pest or weed control at 200 ppm [8] | pest or weed control at 200 ppm [9] | pest or weed control at 200 ppm (Phytophthora infestans) | inhibition of growth at 20 ppm [10] | pest or weed control at 200 ppm [11]
110 to 112 °C: melting point

CO/C=C(\Oc1cc(-n2ccc(C(F)(F)F)n2)c(OC)cc1C)C(=O)OC [Compound E-32, methyl (Z)-3-methoxy-2-[4-methoxy-2-methyl-5-[3-(trifluoromethyl)pyrazol-1-yl]phenoxy]prop-2-enoate]
130 to 133 °C: melting point
≥ 80%: inhibition of growth at 20 ppm [1] | inhibition of growth at 20 ppm [2] | pest or weed control at 200 ppm [3] | inhibition of growth at 20 ppm [4] | pest or weed control at 200 ppm (Plasmopara viticola) | pest or weed control at 200 ppm [5] | inhibition of growth at 20 ppm [6] | inhibition of growth at 20 ppm [7] | pest or weed control at 200 ppm [8] | pest or weed control at 200 ppm [9] | pest or weed control at 200 ppm (Phytophthora infestans) | inhibition of growth at 20 ppm [10] | pest or weed control at 200 ppm [11]

C=C(C)c1ccn(-c2ccc(C)c(O/C(=C\OC)C(=O)OC)c2)n1 [Compound E-65, methyl (Z)-2-[5-(3-isopropenylpyrazol-1-yl)-2-methyl-phenoxy]-3-methoxy-prop-2-enoate]
80 to 84 °C: melting point
≥ 80%: inhibition of growth at 20 ppm [1] | inhibition of growth at 20 ppm [2] | pest or weed control at 200 ppm [3] | inhibition of growth at 20 ppm [4] | pest or weed control at 200 ppm (Plasmopara viticola) | pest or weed control at 200 ppm [5] | inhibition of growth at 20 ppm [6] | inhibition of growth at 20 ppm [7] | pest or weed control at 200 ppm [8] | pest or weed control at 200 ppm [9] | inhibition of growth at 20 ppm [10]

C/C=C(\C)c1ccn(-c2ccc(C)c(O/C(=C\OC)C(=O)OC)c2)n1 [Compound E-43, methyl (Z)-3-methoxy-2-[2-methyl-5-[3-[(E)-1-methylprop-1-enyl]pyrazol-1-yl]phenoxy]prop-2-enoate]
≥ 80%: inhibition of growth at 20 ppm [1] | inhibition of growth at 20 ppm [2] | inhibition of growth at 20 ppm [4] | pest or weed control at 200 ppm (Plasmopara viticola) | pest or weed control at 200 ppm [5] | inhibition of growth at 20 ppm [6] | inhibition of growth at 20 ppm [7] | pest or weed control at 200 ppm [8] | pest or weed control at 200 ppm [9] | pest or weed control at 200 ppm (Phytophthora infestans) | inhibition of growth at 20 ppm [10]
115 to 118 °C: melting point
